Measured values from patent US9265755B2, “Stem cell administration to reduce TNF-α level in CSF of an autism spectrum disorder or pervasive development disorder patient” (priority 2009, dated 2016).
Entries after “also recorded” stand apart in the source; their conditions may differ.

What was measured:
[1] = system: test subjects with autism spectrum condition; experiment: L-Carnosine in test subjects with autism spectrum condition (language, CARS); assay type: in vivo, human
[2] = system: patient with co-morbid autism condition and inflammatory colitis; experiment: Co-morbid autism condition in a single patient treated with infliximab; assay type: in vivo, human; details: in just days of treatment
From the text: This patient regressed and became autistic […] with the onset of their inflammatory colitis condition becoming clinically obvious at a later date.

[3] = system: TNF-α; experiment: TNF-α levels in CSF and serum of autism spectrum patients treated with lenalinomide; assay type: in vivo, human
[4] = system: patients diagnosed with an autism spectrum condition; experiment: Clinical language, social skills, CARS and EEG outcome in the lenalinomide study; assay type: in vivo, human
[5] = system: autism spectrum subjects; experiment: Clinical improvement with lenalidomide outside of the study; assay type: in vivo, human; details: 2.5 to 10 mg; four subjects outside of the study
[6] = system: Interleukin-1β; experiment: Serum Interleukin-1β levels with lenalidomide outside of the study; assay type: in vivo, human; details: 2.5 to 10 mg; 2 subjects; 12 to 24 weeks of therapy
[7] = system: patients with autistic regression and abnormal EEG; experiment: Thalidomide in patients with autistic regression and abnormal EEG
[8] = 2.5 mg per day, in 6 to 12 weeks, four patients with TNF-α CSF elevation over serum levels
[9] = after 4 to 12 weeks off the medication
[10] = 25 to 50 mg per day for 2 to 4 months, six patients

NCCC(=O)N[C@@H](Cc1cnc[nH]1)C(=O)O [L-Carnosine]
language function, receptive one word vocabulary testing scores ([1]; 800 mg per day, after 6 and 12 weeks of treatment, compared to placebo): improvement | CARS scores ([1]; 800 to 1000 mg, over 8 weeks): CARS scores improvement | language ([1]; 800 to 1000 mg, over 8 weeks): language improvement

Infliximab
co-morbid autism condition [2]: improvement

Nc1cccc2c1CN(C1CCC(=O)NC1=O)C2=O (stereo not shown) [Lenalinomide]
levels of TNF-α in CSF [3, 8]: lowered levels | levels of TNF-α in serum [3, 8]: lowered levels | TNF-α levels in serum after withdrawal of the medication [3, 9]: increased | CSF and serum ratios of TNF-α and other inflammatory cytokines ([3]; when TNF-α is elevated in an inflammatory response): lowering | EEG in patients with abnormal EEG ([4]; 2.5 mg per day): showed improvement; also recorded: may have improved | patients with elevated TNF-α levels in CSF and serum improved over baseline clinically ([4]; 2.5 mg per day (4/6 of completed study)): four out of four | CGI rating scale for language expression ([4]; 2.5 mg per day, FIG. 2a): Improvement | CGI rating scale for receptive language ([4]; 2.5 mg per day, FIG. 2b): Improvement | CGI rating scale for social skills ([4]; 2.5 mg per day, FIG. 3): Improvement | neuropsychological testing, receptive one-word test ([4]; 2.5 mg per day, FIG. 4a): Improvement | neuropsychological testing, expressive one-word test ([4]; 2.5 mg per day, FIG. 4b): Improvement | Childhood Autism Rating Scale Scores (CARS) ([4]; 2.5 mg per day, four patients): improved | language skills ([4]; 2.5 mg per day, four patients): improved | social skills ([4]; 2.5 mg per day, four patients): improved | skills after withdrawal of the medication [4, 9]: regressed | clinical state when medication was re-introduced ([4]; re-introduced at 2.5 to 5 mg per day, three patients): improved | clinical improvement [5]: great clinical improvement | Interleukin-1β levels in serum [6]: lower

O=C1CCC(N2C(=O)c3ccccc3C2=O)C(=O)N1 (stereo not shown) [Thalidomide]
EEG [7, 10]: improved | clinical global improvement [7, 10]: clinical global improvement occurred | clinical state of patients with autistic regression and abnormal EEG ([7]; patients who previously showed immune partial response to oral or injectable corticosteroids): improvement
